According to ChEMBL document CHEMBL1938257, “Synthesis of monomeric derivatives to probe memoquin's bivalent interactions” (J Med Chem, 2011):
Calls of active or inactive are those of the source. No cut-off for these calls is given here.

Key:
[1] = Inhibition of amyloid beta (1 to 42) self-aggregation assessed as fibril formation at 10 uM after 24 hrs by thioflavin T-based fluorometric assay
[2] = biological target: Cholinesterase (Homo sapiens, UniProt P06276); assay: Inhibition of human recombinant BuChE using butyrylthiocholine iodide as substrate after 20 mins preincubation by Ellman method
Cholinesterase, sequence (P06276 whole entry): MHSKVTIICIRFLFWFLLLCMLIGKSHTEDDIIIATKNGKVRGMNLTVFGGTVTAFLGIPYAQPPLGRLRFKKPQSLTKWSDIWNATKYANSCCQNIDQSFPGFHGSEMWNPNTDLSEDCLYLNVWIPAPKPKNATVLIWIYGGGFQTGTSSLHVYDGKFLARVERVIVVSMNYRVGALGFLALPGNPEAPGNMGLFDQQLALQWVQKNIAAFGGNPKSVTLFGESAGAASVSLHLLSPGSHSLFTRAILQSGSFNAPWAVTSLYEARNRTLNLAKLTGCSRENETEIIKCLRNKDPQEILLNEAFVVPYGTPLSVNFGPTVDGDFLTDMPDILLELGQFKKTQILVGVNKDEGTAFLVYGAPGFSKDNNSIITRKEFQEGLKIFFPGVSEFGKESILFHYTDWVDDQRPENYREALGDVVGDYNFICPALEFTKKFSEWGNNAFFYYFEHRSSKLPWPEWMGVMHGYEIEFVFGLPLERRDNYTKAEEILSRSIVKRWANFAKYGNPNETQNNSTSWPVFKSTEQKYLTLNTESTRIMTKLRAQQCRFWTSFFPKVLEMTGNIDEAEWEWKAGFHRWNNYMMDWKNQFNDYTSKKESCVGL

[3] = biological target: T1, Beta-secretase 1 (Homo sapiens, UniProt P56817); assay: Inhibition of recombinant BACE1 expressed in baculovirus system using panvera peptide as substrate at 3 uM after 60 mins by spectrofluorometric analysis
T1 sequence (P56817 whole entry): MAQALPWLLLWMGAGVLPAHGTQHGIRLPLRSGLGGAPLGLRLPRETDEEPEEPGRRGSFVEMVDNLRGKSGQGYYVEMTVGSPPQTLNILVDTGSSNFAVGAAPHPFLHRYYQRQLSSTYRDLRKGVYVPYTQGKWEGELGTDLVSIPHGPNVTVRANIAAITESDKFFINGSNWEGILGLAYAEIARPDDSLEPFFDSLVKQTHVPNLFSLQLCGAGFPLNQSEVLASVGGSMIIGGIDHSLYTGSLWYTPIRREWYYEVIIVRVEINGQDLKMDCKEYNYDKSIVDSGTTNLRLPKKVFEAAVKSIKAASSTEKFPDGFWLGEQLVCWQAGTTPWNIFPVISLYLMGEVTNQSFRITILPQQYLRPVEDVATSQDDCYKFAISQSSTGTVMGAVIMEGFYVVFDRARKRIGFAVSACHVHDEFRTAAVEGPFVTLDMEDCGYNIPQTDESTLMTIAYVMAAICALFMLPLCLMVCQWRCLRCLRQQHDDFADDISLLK

[4] = biological target: T2, Acetylcholinesterase (Homo sapiens, UniProt P22303); assay: Inhibition of human recombinant AChE using acetylthiocholine iodide as substrate after 20 mins preincubation by Ellman method
T2 sequence (P22303 whole entry): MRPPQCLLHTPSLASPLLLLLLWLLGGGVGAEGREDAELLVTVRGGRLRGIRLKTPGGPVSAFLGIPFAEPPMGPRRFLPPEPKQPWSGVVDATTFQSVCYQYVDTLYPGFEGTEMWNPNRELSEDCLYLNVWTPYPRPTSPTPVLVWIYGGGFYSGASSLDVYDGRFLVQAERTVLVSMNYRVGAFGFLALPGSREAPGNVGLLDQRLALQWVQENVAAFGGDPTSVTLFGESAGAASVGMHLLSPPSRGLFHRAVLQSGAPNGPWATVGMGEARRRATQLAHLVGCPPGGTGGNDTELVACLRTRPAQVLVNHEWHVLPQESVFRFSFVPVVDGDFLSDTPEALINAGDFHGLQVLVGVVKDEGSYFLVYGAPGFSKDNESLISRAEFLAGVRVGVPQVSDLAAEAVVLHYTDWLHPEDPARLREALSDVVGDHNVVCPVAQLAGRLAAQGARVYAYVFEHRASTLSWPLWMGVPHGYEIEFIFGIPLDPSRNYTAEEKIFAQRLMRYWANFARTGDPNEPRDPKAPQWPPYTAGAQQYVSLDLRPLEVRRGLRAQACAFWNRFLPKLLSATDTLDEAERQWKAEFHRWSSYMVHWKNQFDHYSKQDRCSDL

[5] = Inhibition of gamma-secretase in chicken primary telencephalon neuron cells expressing APP assessed as inhibition of amyloid beta-42 production by electrochemiluminescence assay; details: Gallus gallus
[6] = biological target: T1, Beta-secretase 1; assay: Inhibition of recombinant BACE1 expressed in baculovirus system using panvera peptide as substrate after 60 mins by spectrofluorometric analysis
[7] = Neurotoxicity in chicken primary telencephalon neuron expressing APP assessed as reduction in neuronal viability at 0.01 to 50 uM after 24 hrs by MTT assay; design: species or system Gallus gallus
[8] = Inhibition of gamma-secretase in chicken primary telencephalon neuron cells expressing APP assessed as inhibition of amyloid beta-40 production by electrochemiluminescence assay; details: Gallus gallus
[9] = biological target: T2, Acetylcholinesterase; assay: Inhibition of human recombinant AChE-induced amyloid beta (1-40) aggregation assessed as fibril formation after 24 hrs by thioflavin T-based fluorometric assay
[10] = Inhibition of gamma-secretase in chicken primary telencephalon neuron cells expressing APP assessed as inhibition of amyloid beta-38 production by electrochemiluminescence assay; details: Gallus gallus
[11] = biological target: T1, Beta-secretase 1; assay: Inhibition of recombinant BACE1 expressed in baculovirus system using M-2420 as substrate preincubated for 1 hr before substrate addition measured after 15 mins by spectrofluorometric analysis
[12] = biological target: T2, Acetylcholinesterase; assay: Inhibition of human recombinant AChE-induced amyloid beta 40 aggregation assessed as fibril formation at 100 uM after 24 hrs by thioflavin T-based fluorometric assay
[13] = Neurotoxicity in chicken primary telencephalon neuron expressing APP assessed as reduction in neuronal viability at 25 uM after 24 hrs by MTT assay; design: species or system Gallus gallus
[14] = Neurotoxicity in chicken primary telencephalon neuron expressing APP assessed as reduction in neuronal viability at 50 uM after 24 hrs by MTT assay; design: species or system Gallus gallus

Structure (SMILES)	inhibition [1] [%]	IC50 [2] [µM]	inhibition [3]	IC50 [4] [µM]	IC50 [5] [µM]	IC50 [6] [µM]	Activity [7]	IC50 [8] [µM]	IC50 [9] [µM]	IC50 [10] [µM]	IC50 [11] [µM]	inhibition [12] [%]	Activity [13]	Activity [14]
NCCCCCCNC1=CC(=O)c2ccccc2C1=O	13.8	294	inactive	64.5										
COc1ccccc1CN1CCC(N2CCC(NC3=CC(=O)c4ccccc4C3=O)CC2)CC1	21.4	3.16	inactive	17.2										
CCN(CCCCCCNC1=CC(=O)c2ccccc2C1=O)Cc1ccccc1OC	27.3	1.49	60.2%	0.00973	46	2.8	Non-toxic	21	45	19	3	69.1		
COC1=CC(=O)C(N2CCC(C3CCN(Cc4ccccc4OC)CC3)CC2)=CC1=O	20.5	3.58	32.9%	24.4									Toxic	
CCN(CCCCCCNC1=CC(=O)c2ncccc2C1=O)Cc1ccccc1OC	15.4	2.56	inactive	0.0279								41.3		
CCN(CCCCCCNC1=CC(=O)C(NCCCCCCN(CC)Cc2ccccc2OC)=CC1=O)Cc1ccccc1OC [MEMOQUIN]	66.8	0.144	> 80%								4.6		Toxic	
COc1ccccc1CNCCCCCCNC1=CC(=O)c2ccccc2C1=O	29.5	3.32	inactive	1.85										
CCN(CCCCCCNC1=CC(=O)C(C)=C(C)C1=O)Cc1ccccc1OC	30.2	0.314	12.8%	0.029								60.6		
CCN(CCCCCCNC1=CC(=O)C(OC)=CC1=O)Cc1ccccc1OC	45.7	22.8	32.8%	0.0653										Toxic
